Results reported in patent US20080125432A1 (Devgen NV, priority 2004, published 2008).

Biological target: T1, hERG potassium channel (Homo sapiens, UniProt Q12809)
T1 construct: host or cells: HEK 293 T-REx
Assay: Whole cell patch clamp, HEK 293 T-REx HERG cells
Assay type: cell-based
Details: percent value, test concentration not given
From the text: For this experiment HEK 293 T-REx HERG cells (#23) were used. This cell line made by IonGate is characterized by the inducible expression of the hERG gene. The T-REx™ System (Invitrogen, Karlsruhe, Germany) is a tetracycline-regulated mammalian expression system that uses regulatory elements from the E. coli Tn10-encoded tetracycline (Tet) resistance operon. In the absence of Tet the expression is repressed. Tetracycline regulation in the T-REx™ System is based on the binding of tetracycline to the Tet repressor and derepression of the promoter controlling expression of the hERG gene. Addition of Tet to the cell culture media results in expression of the hERG potassium channel.
To construct the HEK 293 T-REx HERG cell line, the hERG gene was ligated into the inducible expression vector pcDNA4/TO (→pc4TO-HERG) and transfected into HEK 293 T-REx cells (this cell line stably expresses the Tet repressor and was purchased at Invitrogen). Stable cell clones were isolated after selection with Blasticidin (5 μg/ml) and Zeocin™ (300 μg/ml). The clones were electrophysiological characterized after induction with 1 μg/ml Tet.
Experiments were performed using the patch clamp set-up. Technical equipment needed for manipulation of the cells was placed on a vibration-isolated table and shielded with a Faraday cage to minimize electrical noise. The amplifier and control system were placed in a rack outside the Faraday cage. The system consisted of an EPC9 or EPC10 patch clamp amplifier (HEKA, Lambrecht, Germany), and the perfusion system DADVC8 (ALA Scientific, New York, USA) controlled by the Pulse software package (HEKA, Lambrecht, Germany) installed on a personal computer.
The cells used for this experiment were kept in continuous culture under standard conditions (37° C., air supplemented with 5% CO2). The HEK 293 T-REx HERG cells were kept in minimal essential medium (MEM) supplemented with 100 U/ml Penicillin, 100 μg/ml Streptomycin, 10% fetal calf serum (FCS), 1% non-essential amino acids (NEAA), 2.5 μg/ml amphotericin, 300 μg/ml Zeocin™ and 5 μg/ml Blasticidin. Cells were passed every 3-4 days after detachment using a Trypsin solution. The quality of the cultured cells was guaranteed by vitality and contamination tests. The culture of the cells was performed as described in protocol D described above.
At least 18 hours prior to electrophysiological experiments the cells were detached by application of iced PBS (phosphate buffered saline) or Trypsin and replated on cover slips. 1 μg/ml Tet was added to the cells to induce hERG expression.
Activity of the cardiac hERG channel was investigated using the patch clamp technique in its whole cell mode. This means that the current needed for clamping the whole cell expressing the K^+-channel protein to a specific potential was measured. The pipettes used for patch clamping were made of borosilicate glass. Measurements were performed at room temperature (20-25° C.). In each experiment (i.e. each cell) only one concentration of the compound was investigated no cumulative dosages were performed. Each cell acted as its own control. […]
After the whole cell configuration was established a series of pulses was applied to check for hERG expression and to optimize amplifier settings. However, only the following measurements were used for data analysis: 15 test pulses (FIG. 4a and Table 6a) were applied at 0.1 Hz (series 1) under constant superfusion with bath solution. The protocol was initiated by a leak test at −40 mV (50 ms). […] The maximum hERG tail current amplitude was measured at −40 mV (tail current test, 1.5 sec.). Only cells generating tail current amplitudes between 300 pA and 10 nA were used for the experimental procedure.
After successful characterization of the current another 10 test pulses were applied at 0.1 Hz while the cell was superfused with bath solution (series 2). […]

T1 sequence (Q12809 whole entry): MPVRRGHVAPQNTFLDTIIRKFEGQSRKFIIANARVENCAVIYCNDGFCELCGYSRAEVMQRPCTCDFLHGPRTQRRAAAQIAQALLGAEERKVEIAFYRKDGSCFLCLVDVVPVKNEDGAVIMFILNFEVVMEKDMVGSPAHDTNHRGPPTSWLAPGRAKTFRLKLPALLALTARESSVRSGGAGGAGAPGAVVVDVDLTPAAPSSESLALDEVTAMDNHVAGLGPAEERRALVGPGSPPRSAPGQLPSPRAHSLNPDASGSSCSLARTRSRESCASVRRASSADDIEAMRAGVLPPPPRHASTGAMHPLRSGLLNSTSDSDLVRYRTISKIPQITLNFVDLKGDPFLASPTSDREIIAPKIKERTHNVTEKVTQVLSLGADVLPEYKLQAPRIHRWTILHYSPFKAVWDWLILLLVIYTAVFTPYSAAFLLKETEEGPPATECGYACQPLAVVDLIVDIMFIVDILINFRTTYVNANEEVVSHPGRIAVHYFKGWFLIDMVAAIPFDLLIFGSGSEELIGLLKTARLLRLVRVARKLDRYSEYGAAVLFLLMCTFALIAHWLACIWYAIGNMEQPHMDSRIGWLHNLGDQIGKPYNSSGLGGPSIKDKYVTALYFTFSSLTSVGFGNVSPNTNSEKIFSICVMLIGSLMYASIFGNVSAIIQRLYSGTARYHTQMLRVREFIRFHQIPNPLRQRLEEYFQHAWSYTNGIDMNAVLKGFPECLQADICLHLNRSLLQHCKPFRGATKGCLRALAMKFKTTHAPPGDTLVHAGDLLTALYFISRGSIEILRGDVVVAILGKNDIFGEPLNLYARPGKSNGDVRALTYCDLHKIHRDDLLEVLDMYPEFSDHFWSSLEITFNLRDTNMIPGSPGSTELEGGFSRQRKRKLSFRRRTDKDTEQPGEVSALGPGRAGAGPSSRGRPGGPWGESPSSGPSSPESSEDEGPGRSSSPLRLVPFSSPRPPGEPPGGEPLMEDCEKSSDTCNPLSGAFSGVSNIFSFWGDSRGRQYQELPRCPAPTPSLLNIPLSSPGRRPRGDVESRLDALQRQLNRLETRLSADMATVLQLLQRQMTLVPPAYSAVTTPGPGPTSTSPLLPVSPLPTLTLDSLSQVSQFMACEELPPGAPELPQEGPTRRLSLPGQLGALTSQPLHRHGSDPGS

`Cc1nc(NC(=O)c2ccc(C(C)(C)C)cc2)sc1C(=O)N[C@H]1CCC[C@@H]1OCc1ccccc1` [Compound 180, 2-(4-tert-butyl-benzoylamino)-4-methyl-thiazole-5-carboxylic acid ((1S,2S)-2-benzyloxycyclopent-1-yl) amide] gave a hERG of 64%.
